In ChEMBL document CHEMBL1146283, “Development of potent, orally active 1-substituted-3,4-dihydro-2-quinolone glycogen phosphorylase inhibitors” (Bioorg Med Chem Lett, 2007):

What was measured:
[1] = Clearance in AP Wistar rat at 2.1 to 4.0 mg/kg, iv and 8.1 to 8.9 mg/kg, po; format: ADME, organism-based; settings: in vivo
[2] = Half life in AP Wistar rat at 2.1 to 4.0 mg/kg, iv and 8.1 to 8.9 mg/kg, po; format: ADME, organism-based; settings: in vivo
[3] = Bioavailability in AP Wistar rat at 2.1 to 4.0 mg/kg, iv and 8.1 to 8.9 mg/kg, po; format: ADME, organism-based; settings: in vivo, at 8.1 to 8.9 mg/kg
[4] = Volume of distribution at steady state in AP Wistar rat at 2.1 to 4.0 mg/kg, iv and 8.1 to 8.9 mg/kg, po; format: ADME, organism-based; settings: in vivo, read-out: Vdss
in vitro [5] = settings: human, Caco-2
in vitro [6] = settings: human, Caco-2; remark: listed apart in the source

Row | Compound | clearance [1] [mL/min/kg] | half-life [2] [h] | bioavailability [3] [%] | Vd [4] [L/kg] | Papp B→A (in vitro [5]) [×10⁻⁶ cm/s] | Papp A→B (in vitro [6]) [×10⁻⁶ cm/s]
1 | O=C(NC1Cc2ccccc2N(CC(CO)CO)C1=O)c1cc2cc(Cl)sc2[nH]1 (racemic) | 2.5 | 13 | 41 | 2.2 | – | –
2 | O=C(CN1C(=O)C(NC(=O)c2cc3cc(Cl)sc3[nH]2)Cc2ccccc21)NCCO (stereo not given) | 5.1 | 5.4 | 12 | 1.4 | – | –
3 | NC(=O)CN1C(=O)C(NC(=O)c2cc3cc(Cl)sc3[nH]2)Cc2ccccc21 (stereo not given) | 1.2 | 16 | 35 | 1.4 | – | –
4 | O=C(O)CN1C(=O)C(NC(=O)c2cc3sc(Cl)c(Cl)c3[nH]2)Cc2ccccc21 (stereo not given) | – | – | – | – | 11 | 0.3
5 | O=C(NC1Cc2ccccc2N(C[C@@H](O)CO)C1=O)c1cc2cc(Cl)sc2[nH]1 (mixture of isomers) | 2.4 | 11 | > 100 | 1.9 | 29 | 29
